Here are results for one molecule from patent US20100137398A1, “USE OF HDAC INHIBITORS FOR THE TREATMENT OF GASTROINTESTINAL CANCERS” (NOVARTIS AG, priority 2007, published 2010).

Test [1] has as its system 19 pancreatic cancer cell lines. Put plainly: Cell proliferation assays, panel of 19 pancreatic cancer cell lines, 6 days. To be noted: 6 days treatment. The class given is cell-based. The procedure: A panel of 19 pancreatic cancer cell lines was independently assessed in cell proliferation assays. Cells were treated with DMSO vehicle control or varying concentrations of LBH589 for 6 days.

The subject of test [2] is 36 colon cancer cell lines. Put plainly: Monolayer growth inhibition assay, panel summary. The class given is cell-based. To be noted: 3 days treatment. An excerpt: The MTT is a colorimetric assay to determine the cell proliferation rate. The yellow tetrazolium MTT (3-(4, 5-dimethylthiazolyl-2)-2, 5-diphenyltetrazolium bromide) is reduced, by metabolically active cells, in part by the action of dehydrogenase enzymes, to generate reducing equivalents such as NADH and NADPH. The resulting intracellular purple formazan can be solubilized and quantified by spectrophotometric means. The signals produced is directly proportional to the cell numbers. Describing the MTT assay in detail, experiments were done using six-point or 9 point drug titrations in multi-well tissue culture dishes, with outer rows left empty. Cells were suspended in complete media at densities of between 10^3 and 10^4 cell/ml, respectively, and added per well. The appropriate medium (200 μl) was then added. […] This plate was incubated at 37° for 4 hours and the optical density was measured on a Molecular Devices Thermomax at 490 nm using the Softmax program. […]
Compound addition began 24 hours after seeding, the same time as the T0 determination. […] The MTS solution was added (as for the T0 plate) and read four hours later. […]
Colon cancer cell lines were treated with DMSO vehicle control or varying concentrations of LBH589 for 3 days. Cell proliferation was measured on the day of cell plating and on the third day post-treatment. IC50 and LD50 values were calculated as described above.

Test [3] concerns Colo205 colon cancer xenograft. Put plainly: Colo205 colon cancer xenograft model, tumor growth inhibition and delay. The note with it: LBH589 30 mg/kg iv Mon/Wed/Fri for 3 weeks, 5-FU 75 mg/kg ip once a week for 3 weeks, or both. The class given is in vivo, Female athymic nude mice. On the procedure:
Female athymic nude mice-were implanted subcutaneously with Col6205 colon cancer cells. When tumors reached a medan tumor volume of 220 mm3, mice were randomized into groups of 10 mice. Mice were treated with LBH589 at 30 mg/kg intravenously on Monday, Wednesday, Friday per week for 3 weeks, 75 mg/kg of 5-Fluorouracil intraperitoneally once a week for 3 weeks, or combination of the two agents. For tumor growth inhibition (FIG. 2A), compound activity was measured as the percent change in tumor volume of treated animals over control animals (% T/C). The percentage of regression was determined as the percent change in the final tumor volume at the end of the study over the starting tumor volume. For tumor growth delay (FIG. 2B), compound activity was measured as the change in median calculated time to the study end point (TTE), which was predefined as tumor volume of 1000 mm^3.

Some results are limits rather than exact numbers.

On to `Cc1[nH]c2ccccc2c1CCNCc1ccc(/C=C/C(=O)NO)cc1` [LBH589, N-hydroxy-3-[4-[[[2-(2-methyl-1H-indol-3-yl)ethyl]-amino]methyl]phenyl]-2E-2-propenamide], for which the LD50 in test [1] (18 of the 19 pancreatic cancer cell lines) and in test [2] (great majority of the colon cancer cell lines (n=31)) was less than 1 µM in each case. In addition, the IC50 values result in test [1] (all 19 pancreatic cancer cell lines) and in test [2] (all 36 colon cancer cell lines) was “low nanomolar” each time. The “tumor growth inhibition (TGI) and tumor growth delay (TGD)” value in test [3] was “led to tumor growth inhibition (TGI) and tumor growth delay (TGD)”. The “Median TTE (time to study end point, tumor volume of 1000 mm^3)” value in test [3] (vehicle 39.5 days) came to 32.9 days.
